Assay results reported in publication PMC10054477, “Design, Synthesis, and Biological Evaluation of Sulfonamide Methoxypyridine Derivatives as Novel PI3K/mTOR Dual Inhibitors” (Pharmaceuticals, 2023).

Experiments:
MCF-7 cells = assay: CCK-8 cell viability assay, MCF-7; type: cell-based; details: Homo sapiens, MCF7; Table 3; 72 h, mean (n = 3)
Description: (§1) MCF-7 and HCT-116 cells were purchased from the Meilunbio Biotechnology Co., Ltd. (Dalian, China). Cells were cultured at 37 °C with 5% CO2, using DMEM or RPMI 1640 medium (Meilunbio, Dalian, China) with 10% (v/v) fetal bovine serum (Gibco, San Diego, CA, USA) and 1% (v/v) penicillin and streptomycin (Meilunbio, Dalian, China). CCK-8 assay was used to determine the inhibitory effect in vitro. In short, cells were incubated into 96-well plates at the rate of 5000 cells per well. After 24 h of incubation, 100 μL medium was added, which contained a specific concentration of the test compound. After 72 h, 10 μL CCK-8 regent was added and the plate was incubated at 37 °C, 5% CO2 for 1 h. The optical density of each hole at 450 nm was read by a BioTek TS-800 microplate reader. GraphPad Prism 9.3.1 software was used to calculate the IC50 value.

HCT-116 cells = assay: CCK-8 cell viability assay, HCT-116; type: cell-based; details: Homo sapiens, Table 3, 72 h, mean (n = 3)
Description: as §1

PI3Kα = biological target: T1, PI3Kα (Homo sapiens, UniProt P42336); assay: ADP-Glo kinase assay, PI3Kα enzyme inhibition; type: biochemical; details: for inhibition at 0.001 µM: Table 3, at 1 nM; for IC50: mean (n = 2)
T1 construct: purchased SignalChem P27-122DH
Description: The enzymatic inhibitory assays of all target compounds against PI3Kα were performed with the ADP-Glo assay (Promega, Madison, WI, USA, catalog No. V9102/3). Briefly, compounds were continuously diluted to a certain concentration. […] The mixture was added to a 96-well plate and incubated in a dark place at ambient temperature for 40 min. Then, the kinase reaction was stopped by adding of ADP-Glo reagent and the plate was incubated again at ambient temperature for another 40 min. The kinase detection reagent was added and the signal was collected via PerkinElmer Envision plate reader (PE, Boston, MA, USA).

T1 sequence (P42336 whole entry): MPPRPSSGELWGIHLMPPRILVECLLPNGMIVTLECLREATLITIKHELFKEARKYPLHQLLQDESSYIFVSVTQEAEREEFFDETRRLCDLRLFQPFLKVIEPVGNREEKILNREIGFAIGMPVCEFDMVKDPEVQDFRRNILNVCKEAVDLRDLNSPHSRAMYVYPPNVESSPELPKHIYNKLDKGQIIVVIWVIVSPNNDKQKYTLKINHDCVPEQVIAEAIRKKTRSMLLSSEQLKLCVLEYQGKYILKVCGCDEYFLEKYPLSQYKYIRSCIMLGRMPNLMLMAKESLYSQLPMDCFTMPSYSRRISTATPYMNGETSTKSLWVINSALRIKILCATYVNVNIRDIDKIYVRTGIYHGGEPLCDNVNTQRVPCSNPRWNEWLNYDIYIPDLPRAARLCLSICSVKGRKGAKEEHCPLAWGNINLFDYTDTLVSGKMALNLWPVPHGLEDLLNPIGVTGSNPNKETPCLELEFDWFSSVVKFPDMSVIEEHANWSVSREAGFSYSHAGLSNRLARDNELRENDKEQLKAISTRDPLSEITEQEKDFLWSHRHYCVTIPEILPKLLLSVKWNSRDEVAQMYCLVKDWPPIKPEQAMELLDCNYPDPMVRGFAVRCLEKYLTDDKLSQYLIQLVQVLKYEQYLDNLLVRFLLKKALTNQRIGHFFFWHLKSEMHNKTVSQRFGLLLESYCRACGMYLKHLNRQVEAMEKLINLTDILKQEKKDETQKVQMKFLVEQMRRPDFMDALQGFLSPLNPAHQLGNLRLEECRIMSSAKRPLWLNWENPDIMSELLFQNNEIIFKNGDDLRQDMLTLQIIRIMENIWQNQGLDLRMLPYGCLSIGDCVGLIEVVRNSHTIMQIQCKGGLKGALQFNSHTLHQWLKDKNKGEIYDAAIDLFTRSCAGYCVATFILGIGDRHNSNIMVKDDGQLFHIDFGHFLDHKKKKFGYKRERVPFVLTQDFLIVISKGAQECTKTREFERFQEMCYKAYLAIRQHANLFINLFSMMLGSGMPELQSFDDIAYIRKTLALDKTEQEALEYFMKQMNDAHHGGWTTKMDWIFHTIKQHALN
T1 sequence (P27986 whole entry partner): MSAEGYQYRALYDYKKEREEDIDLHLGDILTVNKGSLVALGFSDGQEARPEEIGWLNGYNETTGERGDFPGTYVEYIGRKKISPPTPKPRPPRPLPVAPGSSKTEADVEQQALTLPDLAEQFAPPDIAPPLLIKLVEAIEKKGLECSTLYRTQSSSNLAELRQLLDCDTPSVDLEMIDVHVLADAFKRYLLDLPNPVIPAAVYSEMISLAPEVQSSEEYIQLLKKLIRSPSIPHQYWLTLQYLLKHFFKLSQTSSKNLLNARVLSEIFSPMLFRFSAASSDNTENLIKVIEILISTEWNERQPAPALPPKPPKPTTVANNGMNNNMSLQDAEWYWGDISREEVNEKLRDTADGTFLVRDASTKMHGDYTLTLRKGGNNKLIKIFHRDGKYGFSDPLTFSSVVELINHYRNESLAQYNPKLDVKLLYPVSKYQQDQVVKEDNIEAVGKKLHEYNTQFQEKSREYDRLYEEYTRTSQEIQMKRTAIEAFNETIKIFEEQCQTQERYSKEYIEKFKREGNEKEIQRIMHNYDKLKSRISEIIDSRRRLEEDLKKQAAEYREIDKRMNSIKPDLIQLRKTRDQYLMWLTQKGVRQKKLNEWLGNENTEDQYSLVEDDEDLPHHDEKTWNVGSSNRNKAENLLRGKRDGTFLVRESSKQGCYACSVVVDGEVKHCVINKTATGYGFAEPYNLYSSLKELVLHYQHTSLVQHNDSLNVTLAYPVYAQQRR

SMILES | IC50 (MCF-7 cells) | IC50 (HCT-116 cells) | inhibition at 0.001 µM (PI3Kα) | IC50 (PI3Kα)
CCOC(=O)c1cnc(-c2ccnc3ccc(-c4cnc(OC)c(NS(=O)(=O)c5ccc(F)cc5F)c4)cc23)o1 [22a, Ethyl-2-(6-(5-((2,4-difluorophenyl)sulfonamido)-6-methoxypyridin-3-yl)quinolin-4-yl)oxazole-5-carboxylate] | > 1 µM | > 1 µM | 20% | 
CNC(=O)c1cnc(-c2ccnc3ccc(-c4cnc(OC)c(NS(=O)(=O)c5ccc(F)cc5F)c4)cc23)o1 [22b, 2-(6-(5-((2,4-difluorophenyl)sulfonamido)-6-methoxypyridin-3-yl)quinolin-4-yl)-N-methyloxazole-5-carboxamide] | 0.39 ± 0.08 µM | 0.15 ± 0.04 µM | 74% | 
COc1ncc(-c2ccc3nccc(-c4ncc(C(=O)NC5CC5)o4)c3c2)cc1NS(=O)(=O)c1ccc(F)cc1F [22d, N-cyclopropyl-2-(6-(5-((2,4-difluorophenyl)sulfonamido)-6-methoxypyridin-3-yl)quinolin-4-yl)oxazole-5-carboxamide] | 0.46 ± 0.11 µM | 0.1 ± 0.06 µM | 82% | 0.22 nM
COCCNC(=O)c1cnc(-c2ccnc3ccc(-c4cnc(OC)c(NS(=O)(=O)c5ccc(F)cc5F)c4)cc23)o1 [22e, 2-(6-(5-((2,4-difluorophenyl)sulfonamido)-6-methoxypyridin-3-yl)quinolin-4-yl)-N-(2-methoxyethyl)oxazole-5-carboxamide] | 0.2 ± 0.09 µM | 0.13 ± 0.05 µM | 69% | 
COCCCNC(=O)c1cnc(-c2ccnc3ccc(-c4cnc(OC)c(NS(=O)(=O)c5ccc(F)cc5F)c4)cc23)o1 [22f, 2-(6-(5-((2,4-difluorophenyl)sulfonamido)-6-methoxypyridin-3-yl)quinolin-4-yl)-N-(3-methoxypropyl)oxazole-5-carboxamide] | 0.29 ± 0.1 µM | 0.06 ± 0.02 µM | 78% | 0.38 nM
CCCCNC(=O)c1cnc(-c2ccnc3ccc(-c4cnc(OC)c(NS(=O)(=O)c5ccc(F)cc5F)c4)cc23)o1 [22g, N-butyl-2-(6-(5-((2,4-difluorophenyl)sulfonamido)-6-methoxypyridin-3-yl)quinolin-4-yl)oxazole-5-carboxamide] | 0.45 ± 0.09 µM | 0.32 ± 0.09 µM | 55% | 
COc1ncc(-c2ccc3nccc(-c4ncc(C(=O)NCC5CC5)o4)c3c2)cc1NS(=O)(=O)c1ccc(F)cc1F [22h, N-(cyclopropylmethyl)-2-(6-(5-((2,4-difluorophenyl)sulfonamido)-6-methoxypyridin-3-yl)quinolin-4-yl)oxazole-5-carboxamide] | 0.35 ± 0.11 µM | 0.06 ± 0.01 µM | 78% | 0.37 nM
COc1ncc(-c2ccc3nccc(-c4ncc(C(=O)NCC5CCCCC5)o4)c3c2)cc1NS(=O)(=O)c1ccc(F)cc1F [22i, N-(cyclohexylmethyl)-2-(6-(5-((2,4-difluorophenyl)sulfonamido)-6-methoxypyridin-3-yl)quinolin-4-yl)oxazole-5-carboxamide] | 1 ± 0.3 µM | 0.77 ± 0.19 µM | 33% | 
COc1ncc(-c2ccc3nccc(-c4ncc(C(=O)NC5CCCCC5)o4)c3c2)cc1NS(=O)(=O)c1ccc(F)cc1F [22j, N-cyclohexyl-2-(6-(5-((2,4-difluorophenyl)sulfonamido)-6-methoxypyridin-3-yl)quinolin-4-yl)oxazole-5-carboxamide] | > 1 µM | > 1 µM | 18% | 
COc1ccc(CCNC(=O)c2cnc(-c3ccnc4ccc(-c5cnc(OC)c(NS(=O)(=O)c6ccc(F)cc6F)c5)cc34)o2)cc1 [22k, 2-(6-(5-((2,4-difluorophenyl)sulfonamido)-6-methoxypyridin-3-yl)quinolin-4-yl)-N-(4-methoxyphenethyl)oxazole-5-carboxamide] | > 1 µM | > 1 µM | 22% | 
COc1ncc(-c2ccc3nccc(-c4ncc(C(=O)NCCc5ccc(Cl)cc5)o4)c3c2)cc1NS(=O)(=O)c1ccc(F)cc1F [22l, N-(4-chlorophenethyl)-2-(6-(5-((2,4-difluorophenyl)sulfonamido)-6-methoxypyridin-3-yl)quinolin-4-yl)oxazole-5-carboxamide] | > 1 µM | > 1 µM | 15% | 
